Data as given in US8268862B2, “Sirtuin modulating compounds” (Sirtris Pharmaceuticals, Inc., priority 2007, dated 2012).

Target: T1, SIRT1 (Homo sapiens, UniProt Q96EB6)
T1 sequence (Q96EB6 1-747): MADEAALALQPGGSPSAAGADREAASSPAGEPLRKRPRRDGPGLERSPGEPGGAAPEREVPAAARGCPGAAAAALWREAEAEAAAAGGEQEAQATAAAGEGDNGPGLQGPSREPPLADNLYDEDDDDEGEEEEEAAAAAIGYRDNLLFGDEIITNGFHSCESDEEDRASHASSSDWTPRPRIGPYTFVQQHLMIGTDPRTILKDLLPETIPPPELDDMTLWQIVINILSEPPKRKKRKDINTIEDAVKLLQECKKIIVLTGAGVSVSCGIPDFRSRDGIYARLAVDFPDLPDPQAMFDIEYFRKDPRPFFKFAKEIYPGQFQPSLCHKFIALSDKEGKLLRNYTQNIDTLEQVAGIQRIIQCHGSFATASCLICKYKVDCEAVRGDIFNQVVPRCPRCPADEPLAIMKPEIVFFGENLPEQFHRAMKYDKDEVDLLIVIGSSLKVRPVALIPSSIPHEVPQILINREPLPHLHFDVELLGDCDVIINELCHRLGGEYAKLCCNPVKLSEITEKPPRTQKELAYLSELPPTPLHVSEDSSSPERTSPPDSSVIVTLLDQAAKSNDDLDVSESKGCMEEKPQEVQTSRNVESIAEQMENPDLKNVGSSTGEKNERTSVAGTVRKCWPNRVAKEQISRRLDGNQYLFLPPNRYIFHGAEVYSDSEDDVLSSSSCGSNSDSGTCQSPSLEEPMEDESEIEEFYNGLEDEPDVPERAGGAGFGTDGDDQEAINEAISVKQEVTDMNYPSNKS
Assay: mass spectrometry based SIRT1 deacetylation assay (activation)
Assay type: biochemical
Conditions: 0.5 μM peptide substrate, 120 μM βNAD+, 10 nM SIRT1, 25 min at 25° C.; for EC1.5 (concentration of test compound that results in 150% activation of SIRT1): NA = not active in the assay; for Emax: read-out: % FOLD ACT. (percent maximum fold activation of SIRT1)
From the text: A mass spectrometry based assay was used to identify modulators of SIRT1 activity. The mass spectrometry based assay utilizes a peptide having 20 amino acid residues as follows: Ac-EE-K(biotin)-GQSTSSHSK(Ac)NleSTEG-K(5TMR)-EE-NH2 (SEQ ID NO: 1) wherein K(Ac) is an acetylated lysine residue and Nle is a norleucine. The peptide is labeled with the fluorophore 5TMR (excitation 540 nm/emission 580 nm) at the C-terminus. The sequence of the peptide substrate is based on p53 with several modifications. In addition, the methionine residue naturally present in the sequence was replaced with the norleucine because the methionine may be susceptible to oxidation during synthesis and purification.
Test compounds may be added to the reaction as described above. […] After the 25 minute incubation with SIRT1, 10 μL of 10% formic acid is added to stop the reaction. Reactions are sealed and frozen for later mass spec analysis. Determination of the mass of the substrate peptide allows for precise determination of the degree of acetylation (i.e. starting material) as compared to deacetylated peptide (product).
A control for inhibition of sirtuin activity is conducted by adding 1 μL of 500 mM nicotinamide as a negative control at the start of the reaction (e.g., permits determination of maximum sirtuin inhibition). A control for activation of sirtuin activity is conducted using 10 nM of sirtuin protein, with 1 μL of DMSO in place of compound, to determine the amount of deacetylation of the substrate at a given timepoint within the linear range of the assay. This timepoint is the same as that used for test compounds and, within the linear range, the endpoint represents a change in velocity.
For the above assay, SIRT1 protein was expressed and purified as follows. […] The protein was expressed by induction with 1 mM IPTG as an N-terminal His-tag fusion protein at 18° C. overnight and harvested at 30,000×g. Cells were lysed with lysozyme in lysis buffer (50 mM Tris-HCl, 2 mM Tris[2-carboxyethyl]phosphine (TCEP), 10 μM ZnCl2, 200 mM NaCl) and further treated with sonication for 10 min for complete lysis. The protein was purified over a Ni-NTA column (Amersham) and fractions containing pure protein were pooled, concentrated and run over a sizing column (Sephadex S200 26/60 global). The peak containing soluble protein was collected and run on an Ion-exchange column (MonoQ). Gradient elution (200 mM-500 mM NaCl) yielded pure protein. This protein was concentrated and dialyzed against dialysis buffer (20 mM Tris-HCl, 2 mM TCEP) overnight. The protein was aliquoted and frozen at −80° C. until further use.
Sirtuin modulating compounds that activated SIRT1 were identified using the assay described above and are shown below in Table 3. The EC1.5 values represent the concentration of test compounds that result in 150% activation of SIRT1. NT means that the compound was not tested using the indicated assay. NA means that the compound was not active in the indicated assay.

| EC1.5 (concentration of test compound that results in 150% activation of SIRT1) [NM] | Emax [%] | Structure (SMILES) |
| --- | --- | --- |
| 370 | 232 | O=C(Nc1ccccc1-c1nc2cc(CN3CC[C@@H](F)C3)cnc2s1)c1ccc2ccccc2n1 [Compound 113] |
| 110 | 538 | O=C(Nc1ccccc1-c1nc2cc(CN3CC[C@@H](F)C3)cnc2s1)c1cccc(-c2cccc(F)c2)n1 [Compound 54] |
| 829 | 226 | O=C(Nc1ccccc1-c1nc2cc(CN3CCCC3)cnc2s1)c1cc(-c2ccccc2)n[nH]1 [Compound 153] |
| 127 | 487 | COCCN1CCN(Cc2cnc3sc(-c4ccccc4NC(=O)c4cccc(-c5ccc(F)cc5)n4)nc3c2)CC1 [Compound 141] |
| 1060 | 178 | O=C(Nc1ccccc1-c1nc2cc(CN3CCSCC3)cnc2s1)c1ccc2ccccc2n1 [Compound 108] |
| 230 | 273 | O=C1CN(Cc2cnc3sc(-c4ccccc4NC(=O)c4ccc5ccccc5n4)nc3c2)CCN1 [Compound 103] |
| 235 | 239 | Cc1c(C(=O)Nc2ccccc2-c2nc3cc(CN4CCNCC4)cnc3s2)oc2ccccc12 [Compound 89] |
|  | 437 | O=C(Nc1ccccc1-c1nc2cc(CN3CCNCC3)cnc2s1)c1cn2cc(Cl)ccc2n1 [Compound 125] |
| 986 | 142 | O=C(Nc1ccccc1-c1nc2cc(CN3CC[C@@H](F)C3)cnc2s1)c1cccc(-c2ccc[n+]([O-])c2)c1 [Compound 30] |
| 190 | 221 | CN1CCN(Cc2cnc3sc(-c4ccccc4NC(=O)c4ccc5ccccc5n4)nc3c2)CC1 [Compound 90] |
| 683 | 360 | C[C@@H]1CN(Cc2cnc3sc(-c4ccccc4NC(=O)c4cccc(-c5ccncc5)c4)nc3c2)C[C@H](C)N1 [Compound 17] |
| 722 | 198 | CC(C)NCc1cnc2sc(-c3ccccc3NC(=O)c3cccc(-c4ccccc4)c3)nc2c1 [Compound 19] |

The remaining lines, values behind:

| Structure (SMILES) | EC1.5 (concentration of test compound that results in 150% activation of SIRT1) [NM] | Emax [%] |
| --- | --- | --- |
| O=C(Nc1ccccc1-c1nc2cc(CN3CCNCC3)cnc2s1)c1cccc(-c2ccncc2)c1 [Compound 10] | 492 | 316 |
| Cc1cc(C(=O)Nc2ccccc2-c2nc3cc(CN4CCOCC4)cnc3s2)nc(-c2ccccc2)n1 [Compound 132] | 215 | 500 |
| Cc1nc(-c2cccnc2)sc1C(=O)Nc1ccccc1-c1nc2cc(CNC(C)C)cnc2s1 [Compound 83] |  | 100 |
| O=C(Nc1ccccc1-c1nc2cc(CN3CCCC3)cnc2s1)c1cccc(-c2cccc(F)c2)n1 [Compound 61] | 78 | > 500 |
| O=C(Nc1ccccc1-c1nc2cc(CN3CCC(F)CC3)cnc2s1)c1ccc2ccccc2n1 [Compound 114] |  | 146 |
| C[C@@H]1CN(Cc2cnc3sc(-c4ccccc4NC(=O)c4cccc(-c5cccnc5)c4)nc3c2)C[C@H](C)N1 [Compound 16] | 674 | 405 |
| COCCN1CCN(Cc2cnc3sc(-c4ccccc4NC(=O)c4cccc(-c5ncccn5)c4)nc3c2)CC1 [Compound 42] | 656 | 212 |
| COCCN1CCN(Cc2cnc3sc(-c4ccccc4NC(=O)c4cccc(-n5cccn5)c4)nc3c2)CC1 [Compound 45] | 144 | 569 |
| O=C(Nc1ccccc1-c1nc2cc(CN3CCNCC3)cnc2s1)c1cnc2ccccc2n1 [Compound 63] | 859 | 303 |
| COCCN1CCN(Cc2cnc3sc(-c4ccccc4NC(=O)c4cccc(-c5ccccc5Cl)n4)nc3c2)CC1 [Compound 133] | 90 | 500 |
| COc1ccc(-c2ccc(C(=O)Nc3ccccc3-c3nc4cc(CN5CCOCC5)cnc4s3)o2)cc1 [Compound 74] | 421 | 236 |
| COCCN1CCN(Cc2cnc3sc(-c4ccccc4NC(=O)c4cccc(-c5ccc(C#N)cc5)n4)nc3c2)CC1 [Compound 144] | 559 | 402 |
| CN(C)Cc1cnc2sc(-c3ccccc3NC(=O)c3cnc4ccccc4n3)nc2c1 [Compound 92] | 2810 | 163 |
| COCCN1CCN(Cc2cnc3sc(-c4ccccc4NC(=O)c4cccc(-c5csc(C)n5)c4)nc3c2)CC1 [Compound 41] | 652 | 275 |
| O=C(Nc1ccccc1-c1nc2cc(CN3CCOCC3)cnc2s1)c1cccc(-c2ccccc2)c1 [Compound 1] | 233 | 241 |
| COCCN1CCN(Cc2cnc3sc(-c4ccccc4NC(=O)c4cccc(-c5ccccc5C#N)n4)nc3c2)CC1 [Compound 143] | 2121 | 372 |
| CC(C)NCc1cnc2sc(-c3ccccc3NC(=O)c3cncc(-c4ccccc4)c3)nc2c1 [Compound 28] | 3590 | 162 |
| COCCN1CCN(Cc2cnc3sc(-c4ccccc4NC(=O)c4cccc(-c5ccccc5C(F)(F)F)n4)nc3c2)CC1 [Compound 139] | 230 | 457 |
| Cc1nc(-c2cccnc2)sc1C(=O)Nc1ccccc1-c1nc2cc(CN3CC[C@@H](N)C3)cnc2s1 [Compound 79] | 1220 | 240 |
| O=C(Nc1ccccc1-c1nc2cc(CN3CCOCC3)cnc2s1)c1ccc2ccccc2n1 [Compound 68] | 593 | 295 |
| NC1CCN(Cc2cnc3sc(-c4ccccc4NC(=O)c4ccc5ccccc5n4)nc3c2)CC1 [Compound 115] | 620 | > 500 |
| O=C(Nc1ccccc1-c1nc2cc(CN3CCOCC3)cnc2s1)c1cn2cc(F)ccc2n1 [Compound 128] | 1310 | 227 |
| O=C(Nc1ccccc1-c1nc2cc(CN3CCCC3)cnc2s1)c1cccc(-c2ccccc2)c1 [Compound 13] | 584 | 252 |
| Cc1nc(-c2cccnc2)sc1C(=O)Nc1ccccc1-c1nc2cc(CN3CCC(N)CC3)cnc2s1 [Compound 78] | 565 | 297 |
